From BindingDB's records for patent US11649233 (Nanjing Transthera Biosciences, 2023)

Target: T1, Amine oxidase [copper-containing] 3 (Homo sapiens, UniProt Q16853)
T1 sequence (Q16853 whole entry): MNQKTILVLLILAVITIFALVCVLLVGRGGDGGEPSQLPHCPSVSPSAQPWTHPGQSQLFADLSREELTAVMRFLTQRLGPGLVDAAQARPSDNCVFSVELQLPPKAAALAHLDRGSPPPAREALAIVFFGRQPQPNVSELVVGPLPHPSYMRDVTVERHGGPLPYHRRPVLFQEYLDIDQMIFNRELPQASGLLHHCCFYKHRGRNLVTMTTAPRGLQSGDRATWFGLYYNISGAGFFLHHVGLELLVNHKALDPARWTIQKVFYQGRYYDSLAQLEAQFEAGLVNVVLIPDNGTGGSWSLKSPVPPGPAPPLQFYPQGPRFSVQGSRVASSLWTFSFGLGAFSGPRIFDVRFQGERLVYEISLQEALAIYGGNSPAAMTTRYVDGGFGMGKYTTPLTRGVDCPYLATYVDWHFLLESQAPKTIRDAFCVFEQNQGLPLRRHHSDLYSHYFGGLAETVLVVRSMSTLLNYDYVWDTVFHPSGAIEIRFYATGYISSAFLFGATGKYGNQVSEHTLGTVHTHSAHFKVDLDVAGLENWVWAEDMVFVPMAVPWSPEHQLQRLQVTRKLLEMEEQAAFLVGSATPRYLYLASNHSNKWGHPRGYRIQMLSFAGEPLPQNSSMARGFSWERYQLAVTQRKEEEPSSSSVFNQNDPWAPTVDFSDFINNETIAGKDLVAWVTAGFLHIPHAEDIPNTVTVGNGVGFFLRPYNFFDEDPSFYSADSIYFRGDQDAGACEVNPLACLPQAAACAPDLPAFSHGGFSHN
Assay: Inhibition Activity of the Compound on rhVAP-1 and MAO-A/B
Experimental: Test substances: the compounds of the present invention shown in Table 1 and prepared according to the methods of the examples 1. Inhibition Activity of the Compounds on the rhVAP-1 Enzyme (1) Instrument, consumable and reagent Multifunctional microplate reader (MD, FlexStation 3), black bottom-impermeable 96-well plate (Corning), rhVAP-1 (PeproTech) (2) Preparation of Compound Concentration Gradient Solutions An appropriate amount of the test compound was dissolved in DMSO to 10 mM and stored. Before the experiment, an appropriate amount of 10 mM test compound mother liquor was diluted to 10 μM solution with DMSO. Then 3-fold gradient dilution with DMSO was performed, and 10 concentration gradients were formed.(3) Preparation of Enzyme Solutions. An appropriate amount of protein diluent was added to the rhVAP-1 powder to obtain 1 mg/mL of the mother liquor for storage. […] Then 50 μL of 2×substrate mixed solution was added to each well, and immediately the detection was performed with the microplate reader in a condition of an exciting light at 565 nm, an emitting light at 590 nm, the fluorescence intensity for detecting each well of 5 minutes/run, and a total detection time of 25 minutes.

- IC50: 59 nM
SMILES: CC(C)N1CCc2cc(OC/C(=C/F)CN)ccc2C1=O [US11649233, Compound 4]
